Tested on: 9-(2-aminopurine)-RNA II versus 9-(2-aminopurine)-RNA IV (T-box antiterminator model RNAs)
Assay: Fluorescence assay, relative fluorescence ratio (RNA binding selectivity) at 1 mM ligand
Settings: (F-Fo) RNA II / (F-Fo) RNA IV; <1.0 preferential binding for RNA IV, >1.0 for RNA II

NC(Cc1ccccc1)C(O)CO (stereo not shown) [Amino Alcohol 2, 3-amino-4-phenyl-butane-1,2-diol]
relative fluorescence ratio (rounded): 0.4
